No end group written: not given here.
System: drug-resistant Mycobacterium tuberculosis
Conditions: drug-resistant Mycobacterium tuberculosis (PAS, streptomycin, INH); peptide 10 micrograms per ml; seven days

With SFLLRNPNDKYEPF-OH [TRAP-14] the “% inhibition” value was 0.0%.

From patent US20100210559A1, “TRAP-14 AS A THERAPEUTIC AGENT” (priority 2007, published 2010)
